≈ marks a conversion by molar mass, not a printed value.
Experiments:
[1] = biological target: T1, Heat shock protein HSP90 (Homo sapiens, UniProt P07900+P08238); test: Ability to degrade Her2 in MCF7 cells; assay type: functional, cell-based
[2] = test system: MCF7; test: Viability of MCF7 cells by MTS assay; assay type: functional, cell-based; conditions: Homo sapiens
[3] = Solubility in simulated intestinal fluid at pH 6.5; assay type: physicochemical
[4] = Solubility in Balb/C mouse serum at pH 7.4; assay type: ADME, cell-free
[5] = Solubility in simulated gastric fluid at pH 2.0; assay type: physicochemical
[6] = test system: Mus musculus; test: AUC in Balb/C mouse at 100 mg/kg, po; assay type: ADME, organism-based, Plasma; set-up: dose 100 mg/kg, route oral; conditions: in vivo
[7] = biological target: T1, Heat shock protein HSP90; conditions: mcf7
Description: Binding affinity to Hsp90 in MCF7 cell lysate

[8] = test system: NCI-N87; test: Inhibition of N87 cell line xenografted in mouse at 200 mg/kg, po; assay type: functional, Homo sapiens; conditions: read-out: TGI
[9] = Cmax in Balb/C mouse at 100 mg/kg, po; assay type: ADME, organism-based; set-up: dose 100 mg/kg, route oral; conditions: in vivo

Row | Structure (SMILES) | IC50 [1] [nM] | EC50 [2] [nM] | further results
1 | Nc1ncnc2c1nc(Sc1nc3cccc(Cl)c3s1)n2CCO | 300 | 700 | –
2 | CC(C)(C)NCCCn1c(Sc2nc3cccc(Cl)c3s2)nc2c(N)ncnc21 | 150 | 200 | solubility [3]: 138 µg/mL (≈ 307 µM); solubility [4]: 199 µg/mL (≈ 444 µM)
3 | CCCCn1c(Sc2nc3c(Cl)cccc3s2)nc2c(N)ncnc21 | 15000 | 20000 | –
4 | CC(=O)OCCCn1c(Sc2nc3cccc(Cl)c3s2)nc2c(N)ncnc21 | 90 | 200 | solubility [5]: 220 µg/mL (≈ 506 µM); solubility [3]: 16 µg/mL (≈ 36.8 µM); AUC [6]: 1040 ng·h/mL; solubility [4]: 9 µg/mL (≈ 20.7 µM); EC50 [7]: 160 nM
5 | CCOP(=O)(CCn1c(Sc2nc3cncc(Br)c3s2)nc2c(N)ncnc21)OCC | – | 100 | –
6 | CCOP(=O)(CCn1c(Sc2nc3cncc(Cl)c3s2)nc2c(N)ncnc21)OCC | – | 250 | solubility [5]: 124 µg/mL (≈ 248 µM); solubility [3]: 38.3 µg/mL (≈ 76.6 µM); solubility [4]: 14 µg/mL (≈ 28 µM)
7 | CCCCn1c(Sc2nc3ccccc3s2)nc2c(N)ncnc21 | 5000 | 10000 | –
8 | CCCCn1c(Sc2nc3cc(Cl)ccc3s2)nc2c(N)ncnc21 | 20000 | 20000 | –
9 | CCCCn1c(Sc2nc3cccc(Cl)c3s2)nc2c(N)ncnc21 | 180 | 250 | –
10 | CCCCn1c(Sc2nc3cccc(OCC)c3s2)nc2c(N)ncnc21 | 100000 | 16000 | –
11 | CCCCn1c(Sc2nc3cccc(F)c3s2)nc2c(N)ncnc21 | 200 | 1000 | –
12 | CCCCn1c(Sc2nc3ccc(Cl)c(Cl)c3s2)nc2c(N)ncnc21 | 25000 | 20000 | –
13 | CC(C)(C)CNCCn1c(Sc2nc3cccc(Cl)c3s2)nc2c(N)ncnc21 | 35 | 30 | solubility [4]: 4.9 µg/mL (≈ 10.9 µM)
14 | Nc1ncnc2c1nc(Sc1nc3cccc(Cl)c3s1)n2CCNC1CC1 | 110 | 300 | solubility [5]: 245 µg/mL (≈ 586 µM); solubility [3]: 21 µg/mL (≈ 50.2 µM); AUC [6]: 7310 ng·h/mL; solubility [4]: 59 µg/mL (≈ 141 µM); inhibition in vivo at 200 mg/kg [8]: 56%; Cmax [9]: 4510 ng/mL; EC50 [7]: 130 nM
15 | CC(=O)OCCCn1c(Sc2nc3cncc(Cl)c3s2)nc2c(N)ncnc21 | 170 | 1000 | –
16 | CCCCn1c(Sc2nc3cncc(Br)c3s2)nc2c(N)ncnc21 | 400 | 4000 | –
17 | CCOP(=O)(CCn1c(Sc2nc3cccc(Cl)c3s2)nc2c(N)ncnc21)OCC | – | – | solubility [5]: 98.5 µg/mL (≈ 197 µM)

Row | Structure (SMILES) | IC50 [1] [nM] | EC50 [2] [nM] | further results
18 | CC(=O)OCCCCn1c(Sc2nc3cccc(Cl)c3s2)nc2c(N)ncnc21 | 130 | 240 | solubility [5]: 46 µg/mL (≈ 102 µM); solubility [3]: 3 µg/mL (≈ 6.68 µM); EC50 [7]: 140 nM
19 | CCCCn1c(Sc2nc3ccc(Cl)cc3s2)nc2c(N)ncnc21 | 7000 | 20000 | –
20 | CCCCn1c(Sc2nc3cncc(Cl)c3s2)nc2c(N)ncnc21 | 280 | 1000 | –
21 | Nc1ncnc2c1nc(Sc1nc3cccc(Cl)c3s1)n2CCN1CCOCC1 | 250 | 300 | EC50 [7]: 150 nM
22 | CCCn1c(Sc2nc3cccc(Cl)c3s2)nc2c(N)ncnc21 | 250 | 850 | –
23 | Nc1ncnc2c1nc(Sc1nc3cccc(Cl)c3s1)n2CCCO | 150 | 250 | –
24 | Nc1ncnc2c1nc(Sc1nc3cccc(Cl)c3s1)n2CCCCO | 150 | 200 | –
25 | CC(C)(C)NCCn1c(Sc2nc3cccc(Cl)c3s2)nc2c(N)ncnc21 | 140 | 300 | –
26 | N#CCCCCn1c(Sc2nc3cccc(Cl)c3s2)nc2c(N)ncnc21 | 110 | 300 | solubility [5]: 58.7 µg/mL (≈ 141 µM); solubility [3]: 4.4 µg/mL (≈ 10.6 µM); solubility [4]: 31.3 µg/mL (≈ 75.3 µM); EC50 [7]: 100 nM
27 | CCCCn1c(Sc2nc3cccc(OC)c3s2)nc2c(N)ncnc21 | 190 | 230 | solubility [5]: 35 µg/mL (≈ 90.6 µM); solubility [3]: 2 µg/mL (≈ 5.17 µM); solubility [4]: 18 µg/mL (≈ 46.6 µM); EC50 [7]: 200 nM
28 | CCCCn1c(Sc2nc3cccc(C)c3s2)nc2c(N)ncnc21 | 300 | 1300 | –
29 | CC(C)NCCCn1c(Sc2nc3cccc(Cl)c3s2)nc2c(N)ncnc21 | 170 | 500 | –
30 | CCCCn1c(Sc2nc3cccc(Br)c3s2)nc2c(N)ncnc21 | 330 | 2000 | –
31 | CCCCCn1c(Sc2nc3cccc(Cl)c3s2)nc2c(N)ncnc21 | 700 | 6000 | –
32 | CCn1c(Sc2nc3cccc(Cl)c3s2)nc2c(N)ncnc21 | 200 | 800 | –
33 | CC(=O)OCCn1c(Sc2nc3cccc(Cl)c3s2)nc2c(N)ncnc21 | 150 | 300 | –

From ChEMBL document CHEMBL1146181, “7'-substituted benzothiazolothio- and pyridinothiazolothio-purines as potent heat shock protein 90 inhibitors” (J Med Chem, 2006)
